From article PMC8296573, “Synthesis and Biological Evaluation of Fingolimod Derivatives as Antibacterial Agents” (ACS Omega, 2021)
In brackets after ≈: the same amount, converted by molar mass. Like-named read-outs stand apart in the source and are kept apart here.

How the values were obtained:
S. aureus ATCC 25923 [1] = assay: Antibacterial activity, pre-exposure (planktonic cells and biofilm formation); format: cell-based, Staphylococcus aureus; conditions: for MIC / inhibition at 5 µM / inhibition at 10 µM / inhibition at 15 µM / inhibition at 25 µM: Staphylococcus aureus, ATCC25923; for inhibition at 5 µM / inhibition at 10 µM / inhibition at 15 µM / inhibition at 25 µM / Average inhibition %, biofilms viability / Average inhibition %, planktonic cells viability: pre-exposure, ± SD
Outline: (§1)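 Compounds are diluted in DMSO and plated, then bacteria are added to test prevention of growth and biofilm formation. After 18 h at 37 °C with shaking, planktonic OD and resazurin fluorescence are measured. Washed biofilms receive resazurin (30 min S. aureus, 60 min A. baumannii, 90 min P. aeruginosa, 37 °C), then crystal violet.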

A. baumannii NCTC 13423 = assay: Antibacterial activity, pre-exposure; format: cell-based, Acinetobacter baumannii; conditions: for Average inhibition %, biofilms viability / Average inhibition %, planktonic cells viability / inhibition at 10 µM / inhibition at 15 µM / inhibition at 25 µM / inhibition at 50 µM: A. baumannii NCTC 13423, pre-exposure, ± SD; for inhibition at 10 µM / inhibition at 15 µM / inhibition at 25 µM / inhibition at 50 µM / MIC: Acinetobacter baumannii, NCTC13423
Outline: as §1

P. aeruginosa ATCC 9027 = assay: Antibacterial activity, pre-exposure; format: cell-based, Pseudomonas aeruginosa; conditions: for Average inhibition %, biofilms viability / Average inhibition %, planktonic cells viability / inhibition at 50 µM / inhibition at 100 µM / inhibition at 150 µM / inhibition at 200 µM: P. aeruginosa ATCC 9027, pre-exposure, ± SD; for MIC / inhibition at 50 µM / inhibition at 100 µM / inhibition at 150 µM / inhibition at 200 µM: Pseudomonas aeruginosa; for inhibition at 50 µM / inhibition at 100 µM / inhibition at 150 µM / inhibition at 200 µM: ATCC9027
Outline: as §1

S. aureus ATCC 25923 [2] = assay: Antibacterial activity, post-exposure on preformed 18-h-old biofilms; format: cell-based, Staphylococcus aureus; conditions: ± SD; for inhibition at 25 µM / inhibition at 50 µM / inhibition at 100 µM / inhibition at 200 µM: Staphylococcus aureus; for inhibition at 25 µM: ATCC25923, 25 µM; for inhibition at 50 µM: ATCC25923, 50 µM; for inhibition at 100 µM: ATCC25923, 100 µM; for inhibition at 200 µM: ATCC25923, 200 µM
Outline: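 Compounds were applied to preformed 18-h biofilms after medium change and left 24 h. Read-outs: planktonic OD plus resazurin fluorescence (20 μM), biofilm metabolic activity by resazurin 30 min at 37 °C, then biomass by crystal violet absorbance at 595 nm after ethanol fixation.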

[3] = 10 µM, read-out: Average inhibition %, biofilms biomass
[4] = 10 µM, read-out: Average inhibition %, planktonic cells turbidity
[5] = 15 µM, read-out: Average inhibition %, biofilms biomass
[6] = 15 µM, read-out: Average inhibition %, planktonic cells turbidity
[7] = 25 µM, read-out: Average inhibition %, biofilms biomass
[8] = 25 µM, read-out: Average inhibition %, planktonic cells turbidity
[9] = 50 µM, read-out: Average inhibition %, biofilms biomass
[10] = 50 µM, read-out: Average inhibition %, planktonic cells turbidity
[11] = read-out: Average inhibition %, biofilms biomass
[12] = read-out: Average inhibition %, planktonic cells turbidity

Compound: CCCCCCCCCCc1ccc(CCC(N)(CO)CO)nc1 [Compound 62, 2-Amino-2-[2-(5-decylpyridin-2-yl)ethyl]propane-1,3-diol]
- MIC (S. aureus ATCC 25923 [1]; lowest concentration with no visible growth (>90% inhibition of turbidity and viability of planktonic cells), 18 h, read-out: MIC S. aureus ATCC 25923): 15 µM (≈ 5.05 µg/mL)
- inhibition at 5 µM (S. aureus ATCC 25923 [1]; 5 µM, read-out: Average inhibition %, biofilms biomass): 34.5 ± 10.1%
- inhibition at 5 µM (S. aureus ATCC 25923 [1]; 5 µM, read-out: Average inhibition %, planktonic cells turbidity): 9.5 ± 10.5%
- inhibition at 10 µM (S. aureus ATCC 25923 [1]; [3]): 46 ± 8%
- inhibition at 10 µM (S. aureus ATCC 25923 [1]; [4]): 15.6 ± 7.5%
- inhibition at 15 µM (S. aureus ATCC 25923 [1]; [5]): 91.8 ± 5.5%
- inhibition at 15 µM (S. aureus ATCC 25923 [1]; [6]): 85.8 ± 12.4%
- inhibition at 25 µM (S. aureus ATCC 25923 [1]; [7]): 94.8 ± 1.6%
- inhibition at 25 µM (S. aureus ATCC 25923 [1]; [8]): 99.1 ± 0.7%
- MIC (S. aureus ATCC 25923 [1]; read-out: MIC (S. aureus)): 15 µM (≈ 5.05 µg/mL)
- MIC S. aureus ATCC 25923 (S. aureus ATCC 25923 [1]; lowest concentration with no visible growth (>90% inhibition of turbidity and viability of planktonic cells), 18 h): same MIC as fingolimod
- Average inhibition %, biofilms viability (S. aureus ATCC 25923 [1]; 5 µM): 23.3 ± 7.1%
- Average inhibition %, planktonic cells viability (S. aureus ATCC 25923 [1]; 5 µM): 0 ± 0%
- Average inhibition %, biofilms viability (S. aureus ATCC 25923 [1]; 10 µM): 35.7 ± 5.8%
- Average inhibition %, planktonic cells viability (S. aureus ATCC 25923 [1]; 10 µM): 0 ± 0%
- Average inhibition %, biofilms viability (S. aureus ATCC 25923 [1]; 15 µM): 95.2 ± 3.8%
- Average inhibition %, planktonic cells viability (S. aureus ATCC 25923 [1]; 15 µM): 92.4 ± 6.5%
- Average inhibition %, biofilms viability (S. aureus ATCC 25923 [1]; 25 µM): 99.6 ± 0.2%
- Average inhibition %, planktonic cells viability (S. aureus ATCC 25923 [1]; 25 µM): 100 ± 0.1%
- Average inhibition %, biofilms viability (A. baumannii NCTC 13423; 10 µM): 40 ± 33.9%
- Average inhibition %, planktonic cells viability (A. baumannii NCTC 13423; 10 µM): 37.7 ± 25.3%
- Average inhibition %, biofilms viability (A. baumannii NCTC 13423; 15 µM): 100.5 ± 1%
- Average inhibition %, planktonic cells viability (A. baumannii NCTC 13423; 15 µM): 99.8 ± 0.4%
- Average inhibition %, biofilms viability (A. baumannii NCTC 13423; 25 µM): 101.2 ± 1.3%
- Average inhibition %, planktonic cells viability (A. baumannii NCTC 13423; 25 µM): 99.7 ± 0.3%
- Average inhibition %, biofilms viability (A. baumannii NCTC 13423; 50 µM): 101.3 ± 1.2%
- Average inhibition %, planktonic cells viability (A. baumannii NCTC 13423; 50 µM): 99.7 ± 0.2%
- inhibition at 10 µM (A. baumannii NCTC 13423; [3]): 21.3 ± 18.9%
- inhibition at 10 µM (A. baumannii NCTC 13423; [4]): 46 ± 39.6%
- inhibition at 15 µM (A. baumannii NCTC 13423; [5]): 85.4 ± 2%
- inhibition at 15 µM (A. baumannii NCTC 13423; [6]): 99.3 ± 0.9%
- inhibition at 25 µM (A. baumannii NCTC 13423; [7]): 83.1 ± 3%
- inhibition at 25 µM (A. baumannii NCTC 13423; [8]): 99.2 ± 0.9%
- inhibition at 50 µM (A. baumannii NCTC 13423; [9]): 79 ± 9.4%
- inhibition at 50 µM (A. baumannii NCTC 13423; [10]): 98.8 ± 0.9%
- MIC (A. baumannii NCTC 13423; pre-exposure, Inactive = no activity up to 50 μM, > = some inhibition but no MIC reached, read-out: MIC A. baumannii NCTC 13423): 15 µM (≈ 5.05 µg/mL)
- MIC (A. baumannii NCTC 13423; supplementary molecular formula strings sheet, read-out: MIC (A. baumannii)): 15 µM (≈ 5.05 µg/mL)
- Average inhibition %, biofilms viability (P. aeruginosa ATCC 9027; 50 µM): 13.5 ± 11.7%
- Average inhibition %, planktonic cells viability (P. aeruginosa ATCC 9027; 50 µM): 18.7 ± 18.1%
- Average inhibition %, biofilms viability (P. aeruginosa ATCC 9027; 100 µM): 13.6 ± 3.2%
- Average inhibition %, planktonic cells viability (P. aeruginosa ATCC 9027; 100 µM): 39.6 ± 45.8%
- Average inhibition %, biofilms viability (P. aeruginosa ATCC 9027; 150 µM): 27.7 ± 14.8%
- Average inhibition %, planktonic cells viability (P. aeruginosa ATCC 9027; 150 µM): 76.3 ± 19.2%
- Average inhibition %, biofilms viability (P. aeruginosa ATCC 9027; 200 µM): 61.8 ± 34.8%
- Average inhibition %, planktonic cells viability (P. aeruginosa ATCC 9027; 200 µM): 94.7 ± 4.6%
- MIC (P. aeruginosa ATCC 9027; ATCC9027, pre-exposure, Inactive = no activity up to 200 μM, > = some inhibition but no MIC reached, read-out: MIC P. aeruginosa ATCC 9027): > 200 µM
- MIC (P. aeruginosa ATCC 9027; ATCC9027, supplementary molecular formula strings sheet, read-out: MIC (P. aeruginosa)): > 200 µM
- inhibition at 50 µM (P. aeruginosa ATCC 9027; [9]): 19.7 ± 9.7%
- inhibition at 50 µM (P. aeruginosa ATCC 9027; [10]): 35.6 ± 9.3%
- inhibition at 100 µM (P. aeruginosa ATCC 9027; 100 µM, read-out: Average inhibition %, biofilms biomass): 18.6 ± 19.2%
- inhibition at 100 µM (P. aeruginosa ATCC 9027; 100 µM, read-out: Average inhibition %, planktonic cells turbidity): 58 ± 23%
- inhibition at 150 µM (P. aeruginosa ATCC 9027; 150 µM, read-out: Average inhibition %, biofilms biomass): 21 ± 3.9%
- inhibition at 150 µM (P. aeruginosa ATCC 9027; 150 µM, read-out: Average inhibition %, planktonic cells turbidity): 84.5 ± 4.1%
- inhibition at 200 µM (P. aeruginosa ATCC 9027; 200 µM, read-out: Average inhibition %, biofilms biomass): 38.5 ± 47.1%
- inhibition at 200 µM (P. aeruginosa ATCC 9027; 200 µM, read-out: Average inhibition %, planktonic cells turbidity): 92.5 ± 5%
- Average inhibition %, biofilms viability (S. aureus ATCC 25923 [2]; 25 µM): 12.6 ± 12.7%
- Average inhibition %, planktonic cells viability (S. aureus ATCC 25923 [2]; 25 µM): 0 ± 0%
- Average inhibition %, biofilms viability (S. aureus ATCC 25923 [2]; 50 µM): 37.2 ± 4.9%
- Average inhibition %, planktonic cells viability (S. aureus ATCC 25923 [2]; 50 µM): 0 ± 0%
- Average inhibition %, biofilms viability (S. aureus ATCC 25923 [2]; 100 µM): 56.4 ± 12%
- Average inhibition %, planktonic cells viability (S. aureus ATCC 25923 [2]; 100 µM): 55.8 ± 42.1%
- Average inhibition %, biofilms viability (S. aureus ATCC 25923 [2]; 200 µM): 99.3 ± 0.3%
- Average inhibition %, planktonic cells viability (S. aureus ATCC 25923 [2]; 200 µM): 100.1 ± 0.1%
- inhibition at 25 µM (S. aureus ATCC 25923 [2]; [11]): 43.1 ± 11%
- inhibition at 25 µM (S. aureus ATCC 25923 [2]; [12]): 15.7 ± 12.5%
- inhibition at 50 µM (S. aureus ATCC 25923 [2]; [11]): 63.9 ± 10.9%
- inhibition at 50 µM (S. aureus ATCC 25923 [2]; [12]): 16.7 ± 24.2%
- inhibition at 100 µM (S. aureus ATCC 25923 [2]; [11]): 76.2 ± 5.6%
- inhibition at 100 µM (S. aureus ATCC 25923 [2]; [12]): 57.6 ± 29.3%
- inhibition at 200 µM (S. aureus ATCC 25923 [2]; [11]): 80.8 ± 3.8%
- inhibition at 200 µM (S. aureus ATCC 25923 [2]; [12]): 89.9 ± 1.7%
